The values below come from patent US9938281B2 (Merck Sharp & Dohme Corp., priority 2012, dated 2018).

One test concerns the target T1, PI3K-delta (Homo sapiens, UniProt O00329).
T1 construct: purchased Upstate; Millipore 14-604
The test is described as follows: HTRF PI3K biochemical assay, delta isoform. As to conditions: form screened (neutral or TFA salt) given, read-out: PI3Kdelta IC50.

For the next test, the target named is T2, PI3K-alpha (Homo sapiens, UniProt P42336).
T2 construct: purchased Upstate; Millipore 14-602
T2 sequence (P42336 whole entry): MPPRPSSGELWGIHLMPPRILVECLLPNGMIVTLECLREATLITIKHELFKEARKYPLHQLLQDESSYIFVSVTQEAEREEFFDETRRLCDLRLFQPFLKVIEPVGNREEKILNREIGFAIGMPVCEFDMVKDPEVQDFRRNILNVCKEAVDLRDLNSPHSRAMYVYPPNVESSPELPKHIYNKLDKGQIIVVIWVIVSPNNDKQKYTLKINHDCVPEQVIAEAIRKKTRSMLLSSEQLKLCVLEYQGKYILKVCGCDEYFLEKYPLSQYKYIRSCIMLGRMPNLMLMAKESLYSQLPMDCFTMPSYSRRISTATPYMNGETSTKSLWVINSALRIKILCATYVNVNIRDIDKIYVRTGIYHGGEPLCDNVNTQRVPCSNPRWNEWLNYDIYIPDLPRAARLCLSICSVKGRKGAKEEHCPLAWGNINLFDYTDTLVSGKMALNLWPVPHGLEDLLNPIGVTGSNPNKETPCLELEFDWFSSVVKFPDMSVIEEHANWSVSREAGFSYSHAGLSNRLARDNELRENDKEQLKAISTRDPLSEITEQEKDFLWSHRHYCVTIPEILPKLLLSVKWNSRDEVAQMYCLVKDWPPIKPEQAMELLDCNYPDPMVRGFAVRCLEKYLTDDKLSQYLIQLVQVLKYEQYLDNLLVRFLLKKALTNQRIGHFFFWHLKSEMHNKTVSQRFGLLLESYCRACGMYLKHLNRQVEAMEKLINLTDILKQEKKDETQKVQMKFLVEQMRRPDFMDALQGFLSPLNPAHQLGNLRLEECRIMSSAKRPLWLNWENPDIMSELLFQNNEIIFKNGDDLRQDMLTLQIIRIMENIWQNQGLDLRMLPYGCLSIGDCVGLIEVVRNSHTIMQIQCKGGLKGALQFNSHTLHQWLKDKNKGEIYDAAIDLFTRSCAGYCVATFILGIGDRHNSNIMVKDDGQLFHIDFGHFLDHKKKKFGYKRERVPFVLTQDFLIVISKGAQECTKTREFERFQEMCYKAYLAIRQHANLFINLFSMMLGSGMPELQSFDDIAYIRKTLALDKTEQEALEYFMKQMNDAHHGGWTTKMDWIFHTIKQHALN
T2 sequence (P27986 whole entry partner): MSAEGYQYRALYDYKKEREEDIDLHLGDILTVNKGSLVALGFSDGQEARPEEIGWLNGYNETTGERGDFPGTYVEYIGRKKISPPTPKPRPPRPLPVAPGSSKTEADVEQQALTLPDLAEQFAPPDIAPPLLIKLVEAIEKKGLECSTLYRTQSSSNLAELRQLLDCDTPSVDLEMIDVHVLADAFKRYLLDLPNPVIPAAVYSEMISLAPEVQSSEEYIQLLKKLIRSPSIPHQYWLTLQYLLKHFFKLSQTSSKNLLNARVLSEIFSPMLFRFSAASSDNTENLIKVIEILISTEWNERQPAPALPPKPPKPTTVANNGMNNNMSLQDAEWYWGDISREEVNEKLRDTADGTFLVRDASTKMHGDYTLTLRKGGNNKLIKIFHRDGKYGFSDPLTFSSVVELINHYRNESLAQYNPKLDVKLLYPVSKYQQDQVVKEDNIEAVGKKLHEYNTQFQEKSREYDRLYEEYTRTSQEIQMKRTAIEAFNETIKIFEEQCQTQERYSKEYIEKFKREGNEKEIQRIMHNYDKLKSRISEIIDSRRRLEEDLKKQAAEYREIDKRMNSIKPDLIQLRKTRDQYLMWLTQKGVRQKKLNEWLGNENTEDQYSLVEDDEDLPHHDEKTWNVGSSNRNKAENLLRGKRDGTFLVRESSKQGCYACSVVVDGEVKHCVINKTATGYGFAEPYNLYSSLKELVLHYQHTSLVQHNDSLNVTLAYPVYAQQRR
Nature of the test: HTRF PI3K biochemical assay, alpha isoform. To be noted: ratio PI3K-alpha IC50 value / PI3K-delta IC50 value. In general terms: TR-FRET usually uses a lanthanide donor and a delayed reading to cut background.

pIC50: −log10 of the molar value. Some results are limits rather than exact numbers.

T1 sequence (O00329 whole entry): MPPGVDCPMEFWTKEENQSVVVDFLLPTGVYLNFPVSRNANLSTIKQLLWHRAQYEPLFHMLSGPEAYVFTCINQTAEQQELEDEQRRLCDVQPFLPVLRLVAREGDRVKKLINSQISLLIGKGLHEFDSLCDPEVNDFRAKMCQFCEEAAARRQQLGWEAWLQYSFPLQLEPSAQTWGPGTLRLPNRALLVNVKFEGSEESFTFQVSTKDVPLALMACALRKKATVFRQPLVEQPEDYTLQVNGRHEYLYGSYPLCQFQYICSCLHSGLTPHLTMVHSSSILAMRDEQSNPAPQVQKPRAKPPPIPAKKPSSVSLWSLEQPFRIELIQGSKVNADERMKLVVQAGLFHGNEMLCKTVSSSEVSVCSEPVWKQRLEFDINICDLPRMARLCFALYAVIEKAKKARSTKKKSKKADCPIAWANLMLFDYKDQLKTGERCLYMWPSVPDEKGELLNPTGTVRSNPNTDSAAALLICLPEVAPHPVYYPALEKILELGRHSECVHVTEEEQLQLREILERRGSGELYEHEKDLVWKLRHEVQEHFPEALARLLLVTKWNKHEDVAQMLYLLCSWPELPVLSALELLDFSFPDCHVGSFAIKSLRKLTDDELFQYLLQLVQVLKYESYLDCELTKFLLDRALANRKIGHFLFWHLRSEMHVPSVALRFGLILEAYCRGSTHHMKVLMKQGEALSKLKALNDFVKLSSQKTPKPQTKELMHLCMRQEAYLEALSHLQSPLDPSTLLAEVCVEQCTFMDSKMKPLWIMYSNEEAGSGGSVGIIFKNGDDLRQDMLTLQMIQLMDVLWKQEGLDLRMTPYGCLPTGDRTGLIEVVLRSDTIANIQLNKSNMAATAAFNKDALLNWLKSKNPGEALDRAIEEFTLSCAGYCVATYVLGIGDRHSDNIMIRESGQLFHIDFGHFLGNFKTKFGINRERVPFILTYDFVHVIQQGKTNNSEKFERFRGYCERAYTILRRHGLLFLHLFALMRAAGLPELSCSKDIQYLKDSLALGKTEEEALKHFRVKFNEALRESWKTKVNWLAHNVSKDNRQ
T1 sequence (P27986 whole entry partner): as the sequence (P27986 whole entry partner) above

As for `CCn1c(-c2cnc(C)nc2)nc2c(N[C@H]3CCN(c4ncccn4)C3)ncnc21` [Compound 4-2, 9-ethyl-8-(2-methylpyrimidin-5-yl)-N-[(3S)-1-pyrimidin-2-ylpyrrolidin-3-yl]-9H-purin-6-amine], the pIC50 on PI3K-delta was 8.16. At PI3K-alpha, the “Selectivity versus PI3Kalpha” value is more than 10.

On to `CCn1c(C(=O)N2CCOCC2)nc2c(N[C@H]3CCN(C(=O)C4CC4)C3)ncnc21` [Compound 6-4, N-[(3S)-1-(cyclopropylcarbonyl)pyrrolidin-3-yl]-9-ethyl-8-(morpholin-4-ylcarbonyl)-9H-purin-6-amine], for which the pIC50 on PI3K-delta is 6.85. Also, the “Selectivity versus PI3Kalpha” value on PI3K-alpha is more than 10.

For `CCn1c(-c2cnc(C)nc2)nc2c(NC3CN(C(=O)C4CC4)CC3(F)F)ncnc21` (racemic) [Compound 2-25, N-[(3S and 3R)-1-(cyclopropylcarbonyl)-4,4-difluoropyrrolidin-3-yl]-9-ethyl-8-(2-methylpyrimidin-5-yl)-9H-purin-6-amine], the pIC50 at PI3K-delta was 8.43. Further, the “Selectivity versus PI3Kalpha” value at PI3K-alpha is more than 10.

For `CCn1ncc(-c2nc3c(NC4CC(=O)N(CC(C)C)C4)ncnc3n2C)c1C` (racemic) [Compound 14-3, 4(S and R)-{[8-(1-ethyl-5-methyl-1H-pyrazol-4-yl)-9-methyl-9H-purin-6-yl}amino}-1-(2-methylpropyl)pyrrolidin-2-one], the pIC50 at PI3K-delta is 8.27. Besides, the “Selectivity versus PI3Kalpha” value on PI3K-alpha is recorded as more than 10.

For the molecule `CCn1c(-c2cnc(C)nc2)nc2c(N[C@H]3CCN(C(=O)N4CC(OC)C4)C3)ncnc21` [Compound 12-10, 9-ethyl-N-{(3S)-1-[(3-methoxyazetidin-1-yl)carbonyl]pyrrolidin-3-yl}-8-(2-methylpyrimidin-5-yl)-9H-purin-6-amine], at PI3K-delta, the pIC50 was more than 9.00. Further, the “Selectivity versus PI3Kalpha” value on PI3K-alpha is given as more than 10.

On to `CCC(=O)N1CC[C@H](N(C)c2ncnc3c2nc(-c2cnc(C(C)(C)C)s2)n3CC)C1` [Compound 2-11, (S)-1-(3-((8-(2-(tert-butyl)thiazol-5-yl)-9-ethyl-9H-purin-6-yl)(methyl)amino)pyrrolidin-1-yl)propan-1-one], for which the pIC50 at PI3K-delta was 8.44. The “Selectivity versus PI3Kalpha” value at PI3K-alpha is more than 10.

Consider `CCn1c(-c2cnc(C)nc2)nc2c(NC3CN(C(=O)c4cocn4)CC3C)ncnc21` (single isomer, unassigned) [Compound 2-89, 9-ethyl-N-[-{(3S,4R or 3R,4S)-4-methyl-1-(1,3-oxazol-4-ylcarbonyl)pyrrolidin-3-yl]-8-(2-methylpyrimidin-5-yl)-9H-purin-6-amine], for which, at PI3K-delta, the pIC50 is 8.41. The “Selectivity versus PI3Kalpha” value at PI3K-alpha is given as more than 10.

Turning to `CCC1CN(C(=O)C2CC2)CC1Nc1ncnc2c1nc(-c1cnc(C)nc1)n2CC` (racemic) [Compound 3-19, N-[(3R,4S and 3S,4R)-1-(cyclopropylcarbonyl)-4-ethylpyrrolidin-3-yl]-9-ethyl-8-(2-methylpyrimidin-5-yl)-9H-purin-6-amine], on PI3K-delta, the pIC50 was 8.42. For the same molecule, on PI3K-alpha, the “Selectivity versus PI3Kalpha” value is on record as more than 10.

Consider `CCn1c(-c2cnc(OC)c(Cl)c2)nc2c(N[C@H]3CCN(C(=O)C4CC4)C3)ncnc21` [Compound 3-25, 8-(5-chloro-6-methoxypyridin-3-yl)-N-[(3S)-1-(cyclopropylcarbonyl)pyrrolidin-3-yl]-9-ethyl-9H-purin-6-amine], for which the pIC50 on PI3K-delta is more than 9.00. The “Selectivity versus PI3Kalpha” value on PI3K-alpha is reported as more than 10.

`CCn1c(-c2cnc(C)nc2)nc2c(N[C@H]3CCN(c4ccc(C#N)cn4)C3)ncnc21` [Compound 4-11, 6-[(3S)-3-{[9-ethyl-8-(2-methylpyrimidin-5-yl)-9H-purin-6-yl]amino}pyrrolidin-1-yl]pyridine-3-carbonitrile]: the pIC50 at PI3K-delta is 7.92. Besides, the “Selectivity versus PI3Kalpha” value on PI3K-alpha was more than 10.

Consider `C=C(C)CN1CC(Nc2ncnc3c2nc(-c2cnn(CC)c2C)n3C)CC1=O` (racemic) [Compound 14-2, 4(S and R)-{[8-(1-ethyl-5-methyl-1H-pyrazol-4-yl)-9-methyl-9H-purin-6-yl]amino}-1-(2-methylprop-2-en-1-yl)pyrrolidin-2-one], for which, on PI3K-delta, the pIC50 is 8.00. Besides, at PI3K-alpha, the “Selectivity versus PI3Kalpha” value was more than 10.

Take `CCn1c(C(=O)N(C)C)nc2c(N[C@H]3CCN(C(=O)C4CC4)C3)ncnc21` [Compound 6-5, 6-{[(3S)-1-(cyclopropylcarbonyl)pyrrolidin-3-yl]amino}-9-ethyl-N,N-dimethyl-9H-purine-8-carboxamide]: at PI3K-delta, the pIC50 was 6.10. In addition, the “Selectivity versus PI3Kalpha” value on PI3K-alpha is on record as more than 10.

In the case of `CCn1c(-c2cnc(C)nc2)nc2c(N[C@H]3CCN(C(=O)N4CC[C@@H](OC)C4)C3)ncnc21` [Compound 12-15], the pIC50 at PI3K-delta was 8.09. The “Selectivity versus PI3Kalpha” value on PI3K-alpha is listed as more than 10.

Regarding `CCn1c(C(=O)NC2COC2)nc2c(N[C@H]3CCN(C(=O)C4CC4)C3)ncnc21` [Compound 6-6, 6-{[(3S)-1-(cyclopropylcarbonyl)pyrrolidin-3-yl]amino}-9-ethyl-N-oxetan-3-yl-9H-purine-8-carboxamide], the pIC50 on PI3K-delta was 7.21. Besides, the “Selectivity versus PI3Kalpha” value at PI3K-alpha is listed as more than 10.

Consider `CCn1c(-c2cnc(C)nc2)nc2c(N[C@H]3C[C@H](c4nnc(C)o4)N(C(=O)C4CC4)C3)ncnc21` [Compound 15-14, N-[(3S,5R)-1-(cyclopropylcarbonyl)-5-(5-methyl-1,3,4-oxadiazol-2-yl)pyrrolidin-3-yl]-9-ethyl-8-(2-methylpyrimidin-5-yl)-9H-purin-6-amine], for which, at PI3K-delta, the pIC50 is 7.41. For the same molecule, on PI3K-alpha, the “Selectivity versus PI3Kalpha” value is more than 10.

In the case of `CCn1ncc(-c2nc3c(N[C@H]4CCCN(C(=O)OC(C)(C)C)C4)ncnc3n2C)c1C` [Compound 1-12, (S)-tert-butyl 3-((8-(1-ethyl-5-methyl-1H-pyrazol-4-yl)-9-methyl-9H-purin-6-yl)amino)piperidine-1-carboxylate], the pIC50 at PI3K-delta is 7.72. At PI3K-alpha, the “Selectivity versus PI3Kalpha” value was more than 10.

On to `CCn1c(C(=O)NC2CCCCC2)nc2c(N[C@H]3CCN(C(=O)C4CC4)C3)ncnc21` [Compound 6-14, N-cyclohexyl-6-{[(3S)-1-(cyclopropylcarbonyl)pyrrolidin-3-yl]amino}-9-ethyl-9H-purine-8-carboxamide], for which the pIC50 at PI3K-delta was 7.77. Moreover, the “Selectivity versus PI3Kalpha” value on PI3K-alpha is more than 10.

`CCn1c(C(=O)NCC(F)(F)F)nc2c(N[C@H]3CCN(c4ccccn4)C3)ncnc21` [Compound 6-10, 9-ethyl-6-{[(3S)-1-pyridin-2-ylpyrrolidin-3-yl]amino}-N-(2,2,2-trifluoroethyl)-9H-purine-8-carboxamide]: the pIC50 at PI3K-delta is 7.80. Also, the “Selectivity versus PI3Kalpha” value on PI3K-alpha is recorded as more than 10.

On to `CCn1c(-c2cnc(C)nc2)nc2c(N[C@H]3CCCN(C(=O)OC(C)(C)C)C3)ncnc21` [Compound 1-16, tert-butyl (3S)-3-{[9-ethyl-8-(2-methylpyrimidin-5-yl)-9H-purin-6-yl]amino}piperidine-1-carboxylate], for which the pIC50 on PI3K-delta is 7.31. For the same molecule, the “Selectivity versus PI3Kalpha” value on PI3K-alpha is reported as more than 10.

For `CCC(=O)N1CC[C@H](Nc2ncnc3c2nc(-c2ccc(S(C)(=O)=O)cc2)n3C)C1` [Compound 3-27, 9-methyl-8-[4-(methylsulfonyl)phenyl]-N-[(3S)-1-propanoylpyrrolidin-3-yl]-9H-purin-6-amine], on PI3K-delta, the pIC50 is 7.41. For the same molecule, the “Selectivity versus PI3Kalpha” value on PI3K-alpha was more than 10.

Turning to `CCn1c(CC2CN(S(C)(=O)=O)C2)nc2c(N[C@H]3CCN(C(=O)C4CC4)C3)ncnc21` [Compound 7-25, N-[(3S)-1-(cyclopropylcarbonyl)pyrrolidin-3-yl]-9-ethyl-8-{[1-(methylsulfonyl)azetidin-3-yl]methyl}-9H-purin-6-amine], the pIC50 on PI3K-delta is 7.00. At PI3K-alpha, the “Selectivity versus PI3Kalpha” value is listed as more than 10.

On to `CCC(=O)N1CC[C@H](N(C)c2ncnc3c2nc(-c2cnc(OC)c(C)c2)n3CC)C1` [Compound 2-8, (S)-1-(3-((9-ethyl-8-(6-methoxy-5-methylpyridin-3-yl)-9H-purin-6-yl)(methyl)amino)pyrrolidin-1-yl)propan-1-one], for which the pIC50 on PI3K-delta is 8.66. Besides, on PI3K-alpha, the “Selectivity versus PI3Kalpha” value is listed as more than 10.

For `CCC(=O)N1CC[C@H](Nc2ncnc3c2nc(-c2ccc(C)nc2)n3C)C1` [Compound 3-5, (S)-1-(3-((9-methyl-8-(6-methylpyridin-3-yl)-9H-purin-6-yl)amino)pyrrolidin-1-yl)propan-1-one], on PI3K-delta, the pIC50 is 8.35. Besides, the “Selectivity versus PI3Kalpha” value on PI3K-alpha is listed as more than 10.

Consider `CCn1c(-c2cnc(C)nc2)nc2c(NC3CN(C(=O)C4CC4)CC3F)ncnc21` (single isomer, unassigned) [Compound 3-21, N-[(3R,4R or 3S,4S)-1-(cyclopropylcarbonyl)-4-fluoropyrrolidin-3-yl]-9-ethyl-8-(2-methylpyrimidin-5-yl)-9H-purin-6-amine], for which the pIC50 at PI3K-delta is 8.47. Besides, on PI3K-alpha, the “Selectivity versus PI3Kalpha” value is on record as more than 10.

As to `CCn1c(-c2cnc(C)nc2)nc2c(N[C@H]3CCN(C(=O)[C@H]4CCOC4)C3)ncnc21` [Compound 2-41, 9-ethyl-8-(2-methylpyrimidin-5-yl)-N-{(3S)-1-[(3S)-tetrahydrofuran-3-ylcarbonyl]pyrrolidin-3-yl}-9H-purin-6-amine], at PI3K-delta, the pIC50 is 8.37. At PI3K-alpha, the “Selectivity versus PI3Kalpha” value is recorded as more than 10.

On to `CCn1c(C(=O)NCC(F)(F)F)nc2c(N[C@H]3CCN(C(=O)N4CC(OC)C4)C3)ncnc21` [Compound 12-27, 9-ethyl-6-({(3S)-1-[(3-methoxyazetidin-1-yl)carbonyl]pyrrolidin-3-yl}amino)-N-(2,2,2-trifluoroethyl)-9H-purine-8-carboxamide], for which the pIC50 at PI3K-delta is 8.29. The “Selectivity versus PI3Kalpha” value at PI3K-alpha is more than 10.

For the molecule `CCn1c(OC(C)C)nc2c(N[C@H]3CCN(C(=O)C4CC4)C3)ncnc21` [Compound 8-7, N-[(3S)-1-(cyclopropylcarbonyl)pyrrolidin-3-yl]-9-ethyl-8-(1-methylethoxy)-9H-purin-6-amine], at PI3K-delta, the pIC50 was 7.46. Besides, the “Selectivity versus PI3Kalpha” value at PI3K-alpha is more than 10.
